The values that follow are results of earlier work, collected in patent US20050226899A1, “Cosmetic mask composition” (priority 2004, published 2005).

For this data set, the system named is skin. Conditions: lotion, up to 5% by weight retinoic acid.

As for `CC1=C(/C=C/C(C)=C/C=C/C(C)=C/C(=O)O)C(C)(C)CCC1` [retinoic acid], the irritative phenomena entry was “some treatments had to be interrupted due to the onset of significant irritative phenomena”.
